# Reference: article PMC9570967 (Molecules, 2022)
# “Also recorded” adds a separate entry of the source.
# Legend:
# squirrel monkeys [1] = assay: Antinociception: warm-water tail-withdrawal; type: in vivo, squirrel monkeys (Saimiri sciureus); conditions: 52 °C water, cumulative dosing
# Procedure: Male squirrel monkeys (Saimiri sciureus) were housed in a climate-controlled vivarium with a 12 h light/dark cycle (7 AM–7 PM) in the McLean Hospital Animal Care Facility (licensed by the U.S. Department of Agriculture and compliant with guidelines provided by the Committee on Care and Use of Laboratory Animals of the Institute of Laboratory Animals Resources, Commission on Life Sciences, National Research Council; 2011). Tail withdrawal latencies were assessed as described previously. Briefly, monkeys were seated in customized Plexiglas chairs that allowed their tails to hang freely. Tail withdrawal latencies were measured by immersing the subject’s tail in water held at 35 or 52 °C (temperatures were presented in a randomized order during successive test components). After obtaining a baseline tail withdrawal latency, complete dose response curves were generated in each subject using standard cumulative dosing procedures. Briefly, every 15 min after an injection tail-withdrawal latencies at each temperature were redetermined and subjects were injected with the next dose, such that the total (cumulative) dose was increased by ½ log10 units in each successive cycle. This procedure was repeated until either (a) the tail-withdrawal latency from 52 °C water reached the maximum allowable latency (10 sec), or (b) tail-withdrawal latency no longer increased with increases in dose of the test drug.
# (§1) All statistical analyses and graphic representations were completed with GraphPad Prism version 9.3.0 (GraphPad Software, San Diego, CA, USA) using log transformed values of doses. Group means ± SEM tail withdrawal latencies (in sec) and minute volume ratios are plotted as a function of drug dose. Data were analyzed using One-way ANOVA with significance set at p < 0.05, followed by Dunnett’s multiple comparison test.
# [2] = target: T1, human κ-opioid receptor (OPRK1) (Homo sapiens, UniProt P41145); assay: cell-based
# [3] = target: T1, human κ-opioid receptor (OPRK1); assay: cell-based; remark: listed apart in the source
# [4] = target: T2, human δ-opioid receptor (OPRD1) (Homo sapiens, UniProt P41143); assay: Forskolin-induced cAMP accumulation assay, DOR agonist mode; conditions: for Emax: CHO-K1, read-out: DOR Agonist %Emax ± SEM
# [5] = target: T1, human κ-opioid receptor (OPRK1); conditions: versus EC90 of U50488H; normalized to nor-BNI
# [6] = target: T2, human δ-opioid receptor (OPRD1); assay: Forskolin-induced cAMP accumulation assay, DOR antagonist mode; conditions: for DOR Antagonist %Imax ± SEM: versus EC50 of SNC80, normalized to naltrexone
# mouse mu opioid receptor [7] = target: T3, mouse mu opioid receptor (Mus musculus, UniProt P42866); assay: Competition radioligand binding assay ([3H]naloxone, mMOR-CHO membranes); conditions: 1.4 nM [3H]naloxone, read-out: [3H]NLX Binding Ki
# T3 construct: expressed in transfected cells; host or cells: CHO (mMOR-CHO), membrane homogenates
# Procedure: In vitro binding assays were performed using monocloned mouse mu opioid receptor expressing Chinese hamster ovary (CHO) cells (mMOR-CHO). mMOR-CHO cell culture and membrane homogenate preparation were performed as previously described. All assays were duplicated and repeated at least three times.
# Competition binding assays were performed as previously described. […] Bound radioactive ligand was isolated by filtration through GF/B glass fiber filters and rinsed three times with ice-cold wash buffer (50 mM Tris-HCl, pH 7.2). Bound radioactivity was determined via liquid scintillation ounting. […] The IC50 values were determined by nonlinear regression analysis using GraphPad Prism 9 (GraphPad Software, San Diego, CA, USA) and converted to Ki values using the Cheng–Prusoff equation.
# squirrel monkeys [8] = assay: Respiratory depression: ventilatory response to hypercapnia (5% CO2 in air); type: in vivo, squirrel monkeys (Saimiri sciureus); conditions: ratio of minute volumes in 5% CO2 and room air, cumulative dosing
# Procedure: Ventilation measures were assessed as described previously. Briefly, squirrel monkeys were acclimated to a customized acrylic chamber (10″ d × 10″ w × 10″ h) that served as a whole-body plethysmograph (EMKA Technologies, Montreal, PQ, Canada). Gas (either air or a 5% CO2 in air mixture) was introduced to and extracted from the chamber at a constant flow rate of 5 L/min. Experimental sessions consisted of 4–6 consecutive 30 min cycles, each comprising a 20 min exposure to air followed by a 10 min exposure to 5% CO2. Drug effects were determined using cumulative dosing procedures, and injections were administered following each exposure to 5% CO2. Respiratory rate and tidal volume (mL/breath) were recorded over 1 min periods and were multiplied to provide minute volumes. Data from the last three minutes of each exposure to air or CO2 were averaged and used for analysis of drug effects on ventilation.
# as §1
# mouse mu opioid receptor [9] = target: T3, mouse mu opioid receptor; assay: [35S]GTPγS functional assay (mMOR-CHO membranes); type: biochemical; conditions: for EC50: mMOR-CHO membranes, read-out: GTPgS EC50; for Emax: read-out: GTPgS % Emax of (DAMGO)
# T1 sequence (P41145 whole entry): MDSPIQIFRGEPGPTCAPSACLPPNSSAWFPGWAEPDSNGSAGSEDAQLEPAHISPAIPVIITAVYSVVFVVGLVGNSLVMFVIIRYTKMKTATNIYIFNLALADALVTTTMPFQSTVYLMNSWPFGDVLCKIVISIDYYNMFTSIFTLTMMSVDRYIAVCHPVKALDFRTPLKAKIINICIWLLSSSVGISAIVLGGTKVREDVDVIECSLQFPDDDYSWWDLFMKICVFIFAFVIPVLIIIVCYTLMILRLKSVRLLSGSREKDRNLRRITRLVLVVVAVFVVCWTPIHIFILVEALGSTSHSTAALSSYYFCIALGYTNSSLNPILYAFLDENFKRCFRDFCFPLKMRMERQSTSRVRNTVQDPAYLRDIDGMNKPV
# T2 sequence (P41143 whole entry): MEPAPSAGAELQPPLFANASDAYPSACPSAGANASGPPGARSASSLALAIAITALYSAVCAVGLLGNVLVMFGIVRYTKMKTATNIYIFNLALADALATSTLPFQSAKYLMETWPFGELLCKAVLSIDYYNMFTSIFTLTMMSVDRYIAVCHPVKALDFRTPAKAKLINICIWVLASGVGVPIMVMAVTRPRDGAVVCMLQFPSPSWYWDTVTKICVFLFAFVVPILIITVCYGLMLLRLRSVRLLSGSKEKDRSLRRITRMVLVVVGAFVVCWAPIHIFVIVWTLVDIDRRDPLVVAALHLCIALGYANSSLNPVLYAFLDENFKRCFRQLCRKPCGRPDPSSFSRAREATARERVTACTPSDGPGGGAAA
# T3 sequence (P42866 whole entry): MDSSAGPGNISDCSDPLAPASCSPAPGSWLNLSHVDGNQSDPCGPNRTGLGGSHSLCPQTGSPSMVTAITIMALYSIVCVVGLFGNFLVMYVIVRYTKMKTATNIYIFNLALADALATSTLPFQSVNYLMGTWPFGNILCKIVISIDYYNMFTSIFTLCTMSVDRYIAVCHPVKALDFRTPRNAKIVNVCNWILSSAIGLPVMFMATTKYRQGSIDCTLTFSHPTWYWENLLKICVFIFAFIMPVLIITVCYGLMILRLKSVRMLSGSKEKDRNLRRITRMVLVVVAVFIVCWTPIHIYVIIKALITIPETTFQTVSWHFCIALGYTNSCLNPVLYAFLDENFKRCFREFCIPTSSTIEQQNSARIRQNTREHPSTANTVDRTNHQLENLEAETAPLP
SMILES,Effect on tail withdrawal latency (antinociception) (squirrel monkeys [1]),IC50 [2] [nM],EC50 [3] [nM],EC50 [4] [nM],KOR Antagonist %Imax ± SEM [5] [%],IC50 [6] [nM],DOR Antagonist %Imax ± SEM [6] [%],Emax [4] [%],Ki (mouse mu opioid receptor [7]) [nM],Effect on ventilatory ratio (respiratory depression) (squirrel monkeys [8]),EC50 (mouse mu opioid receptor [9]) [nM],Emax (mouse mu opioid receptor [9]) [%]
"CN1CC[C@]23c4c5ccc(O)c4O[C@H]2[C@@H](O)C=C[C@H]3[C@H]1C5 [Morphine, reference compound]",significantly increased tail withdrawal latency,,,,,,,,,,,
"CC/C=C\[C@H]1[C@@H]2CCC[C@@]1(c1cccc(O)c1)CCN2CCc1ccccc1 [Compound 27, 3-((1S,5R,9R)-9-((Z)-But-1-en-1-yl)-2-phenethyl-2-azabicyclo [3.3.1]nonan-5-yl)phenol]",,0.79 ± 0.28,> 10000,> 10000,98.2 ± 2.3,8.22 ± 2.44,211.5 ± 24.7,,,,,
"C=C[C@@H]1[C@H]2CCC[C@]1(c1cccc(O)c1)CCN2CCc1ccccc1 [Compound 9, 3-((1R,5S,9S)-2-Phenethyl-9-vinyl-2-azabicyclo [3.3.1]nonan-5-yl)phenol]","inconsistent effect of tail withdrawal latency; also recorded: antinociceptive effects in some, but not all subjects",19.8 ± 9.7,> 10000,57 ± 21.4,101.8 ± 19.1,,,22.6,1.91 ± 0.13,did not alter ventilation; also recorded: did not produce morphine-like decreases in ventilatory ratio,37 ± 15.5,10.5 ± 0.82
"C/C=C\[C@H]1[C@H]2CCC[C@]1(c1cccc(O)c1)CCN2CCc1ccccc1 [Compound 17, 3-((1R,5S,9R)-2-Phenethyl-9-((Z)-prop-1-en-1-yl)-2-azabicyclo [3.3.1]nonan-5-yl)phenol]",increased tail withdrawal latency; also recorded: consistent and significant antinociceptive effects,35 ± 9.7,> 10000,> 10000,111.6 ± 7.9,113 ± 19.8,143.3 ± 11.9,,1.83 ± 0.24,without significantly altering ventilation; also recorded: limited effects on ventilatory ratio,9.64 ± 1.7,18 ± 1.45
"C=C[C@H]1[C@@H]2CCC[C@@]1(c1cccc(O)c1)CCN2CCc1ccccc1 [Compound 15, 3-((1S,5R,9R)-2-Phenethyl-9-vinyl-2-azabicyclo [3.3.1]nonan-5-yl)phenol]",,28.4 ± 4.2,> 10000,> 10000,104.9 ± 11.2,144 ± 41,201.4 ± 35.9,,,,,
"C=C[C@H]1[C@H]2CCC[C@]1(c1cccc(O)c1)CCN2CCc1ccccc1 [Compound 8, 3-((1R,5S,9R)-2-Phenethyl-9-vinyl-2-azabicyclo [3.3.1]nonan-5-yl)phenol]",significantly increased tail withdrawal latency; also recorded: had antinociceptive effects,74 ± 30.5,> 10000,> 10000,97.1 ± 9.2,113 ± 43.6,119.1 ± 15.5,,0.5 ± 0.05,reduced the ability of 5% CO2 to stimulate increases in ventilation; also recorded: morphine-like respiratory depressant effects,6.73 ± 1.35,20.1 ± 0.78
"C=C[C@H]1[C@@H]2CCC[C@@]1(c1cccc(OC)c1)CCN2CCc1ccccc1 [Compound 13, (1S,5R,9R)-5-(3-Methoxyphenyl)-2-phenethyl-9-vinyl-2-azabicyclo [3.3.1]nonane]",,> 10000,> 10000,> 10000,,> 10000,,,,,,
"CC/C=C\[C@@H]1[C@H]2CCC[C@]1(c1cccc(O)c1)CCN2CCc1ccccc1 [Compound 24, 3-((1R,5S,9S)-9-((Z)-But-1-en-1-yl)-2-phenethyl-2-azabicyclo [3.3.1]nonan-5-yl)phenol]",,283 ± 46.4,> 10000,> 10000,103.8 ± 9.2,3220 ± 572,182.3 ± 56.4,,,,,
"CC/C=C\[C@H]1[C@H]2CCC[C@]1(c1cccc(O)c1)CCN2CCc1ccccc1 [Compound 23, 3-((1R,5S,9R)-9-((Z)-But-1-en-1-yl)-2-phenethyl-2-azabicyclo [3.3.1]nonan-5-yl)phenol]",,328 ± 96.9,> 10000,> 10000,109.5 ± 8.3,69 ± 4.8,166.6 ± 40.0,,,,,
"CC/C=C\[C@@H]1[C@@H]2CCC[C@@]1(c1cccc(O)c1)CCN2CCc1ccccc1 [Compound 26, 3-((1S,5R,9S)-9-((Z)-But-1-en-1-yl)-2-phenethyl-2-azabicyclo [3.3.1]nonan-5-yl)phenol]",,12.2 ± 2.5,> 10000,> 10000,96.2 ± 0.9,520 ± 144,226.1 ± 14.0,,,,,
"C/C=C\[C@@H]1[C@H]2CCC[C@]1(c1cccc(O)c1)CCN2CCc1ccccc1 [Compound 18, 3-((1R,5S,9S)-2-Phenethyl-9-((Z)-prop-1-en-1-yl)-2-azabicyclo [3.3.1]nonan-5-yl)phenol]",,238 ± 52.6,> 10000,9.69 ± 2.23,114.8 ± 11.2,,,74.5,0.56 ± 0.07,,8.38 ± 0.77,75.3 ± 3.83
"C/C=C\[C@H]1[C@@H]2CCC[C@@]1(c1cccc(O)c1)CCN2CCc1ccccc1 [Compound 20, 3-((1S,5R,9R)-2-Phenethyl-9-((Z)-prop-1-en-1-yl)-2-azabicyclo [3.3.1]nonan-5-yl)phenol]",,4.02 ± 0.25,> 10000,> 10000,126.7 ± 2.6,7.52 ± 2.93,142.5 ± 23.7,,,,,
"C=C[C@@H]1[C@@H]2CCC[C@@]1(c1cccc(O)c1)CCN2CCc1ccccc1 [Compound 14, 3-((1S,5R,9S)-2-Phenethyl-9-vinyl-2-azabicyclo [3.3.1]nonan-5-yl)phenol]",,128 ± 48.2,> 10000,122 ± 47.2,105.6 ± 4.6,,,40.6,,,,
"C/C=C\[C@@H]1[C@@H]2CCC[C@@]1(c1cccc(O)c1)CCN2CCc1ccccc1 [Compound 21, 3-((1S,5R,9S)-2-Phenethyl-9-((Z)-prop-1-en-1-yl)-2-azabicyclo [3.3.1]nonan-5-yl)phenol]",,163 ± 37,> 10000,60.5 ± 3.7,111.8 ± 2.2,,,66.7,,,,
